Among the data in ChEMBL document CHEMBL3301550, “MMV Mararia Box screening against P. falciparum asexual stage parasites under hypoxia and bicarbonate modified culture conditions” are IC50 values, retold here.

A word on the IC50: it is the point on the concentration scale where inhibition reaches its midpoint. A low value points to greater potency.

Format in all cases: functional, organism-based
Holding throughout (settings): 3D7

In test [1] the test system is Plasmodium falciparum. The test can be described thus: MMV: 3H-Hyoxanthine uptake assay; RPMI 1640 (Invitrogen cat#11875-093) with Sodium Bicarbonate (NaHCO3) […].
Test [2] concerns Plasmodium falciparum. The test can be described thus: MMV: 3H-Hyoxanthine uptake assay; 5% O2, 5% CO2 in N2.
For test [3], the system named is Plasmodium falciparum. Put plainly: MMV: Modified 3H-Hyoxanthine uptake assay; RPMI 1640 (Invitrogen cat#23400-013) without Sodium Bicarbonate (NaHCO3).
In test [4] the test system is Plasmodium falciparum. The test can be described thus: MMV: Modified 3H-Hyoxanthine uptake assay; 1% O2, 5% CO2 in N2.

Consider `Fc1ccc2[nH]c3c(NCCCN4CCOCC4)ncnc3c2c1`, for which the IC50 with Plasmodium falciparum [1], in the test on Plasmodium falciparum [2], in the test on Plasmodium falciparum [3] and in the test on Plasmodium falciparum [4] was more than 1000 nM in each case.
As to `Cc1cc(NCCN2CCCCC2)c2ccc3ccccc3c2n1`, the IC50 in the test on Plasmodium falciparum [1] amounted to 127 nM; with Plasmodium falciparum [2] it was 489 nM; in the test on Plasmodium falciparum [3], 219 nM; with Plasmodium falciparum [4] it was 132 nM.
In the case of `c1ccc(Cn2c(N=Nc3c(Nc4ccccc4)ccc4ccccc34)nc3ccccc32)cc1`, the IC50 with Plasmodium falciparum [1] was 125 nM; in the test on Plasmodium falciparum [2], more than 500 nM; with Plasmodium falciparum [3], 64 nM; in the test on Plasmodium falciparum [4], more than 500 nM.
`Cc1cc(Nc2ccc(Cl)cc2)n2nc(C(F)(F)F)nc2n1`: the IC50 was 112 nM in the test with Plasmodium falciparum [1], 349 nM in the test with Plasmodium falciparum [2], 169 nM in the test on Plasmodium falciparum [3] and 70 nM in the test with Plasmodium falciparum [4].
Taken in the same sequence, the figures for `CCOC(=O)c1cnc2c(C)cc(C)cc2c1Nc1ccc(OC)c(OC)c1` were more than 2000 nM, more than 1000 nM, more than 2000 nM and more than 1000 nM.
On the same counts, the results for `COc1cc(OC)c(N(C)C(=O)c2cc3c(s2)-c2ccccc2S(=O)(=O)C3)cc1Cl` are more than 500 nM, more than 500 nM, more than 500 nM and more than 500 nM.
With `Cc1cc(C)cc(Nc2cc(C)nc3nc(C(F)(F)F)nn23)c1`, the IC50 in the test on Plasmodium falciparum [1] was found to be 59 nM; in the test on Plasmodium falciparum [2] it was 81 nM; in the test with Plasmodium falciparum [3] it was 132 nM; in the test with Plasmodium falciparum [4] it was 47 nM.
Taken in the same sequence, the figures for `Cc1ccc(Nc2nc(-c3ccccn3)cs2)cc1` were more than 1000 nM, more than 1000 nM, more than 1000 nM and more than 1000 nM.
For `COc1ccc(Br)cc1C1Nc2ccc3ccccc3c2C2=C1C(=O)CC(c1ccccc1)C2` (centres undefined), the IC50 was 783 nM in the test with Plasmodium falciparum [1], more than 1000 nM in the test with Plasmodium falciparum [2], 710 nM in the test on Plasmodium falciparum [3] and more than 1000 nM in the test on Plasmodium falciparum [4].
As to `O=C(O)C1Cc2c([nH]c3ccccc23)C(c2ccc(Cl)cc2Cl)N1` (centres undefined), the IC50 in the test with Plasmodium falciparum [1], in the test with Plasmodium falciparum [2], with Plasmodium falciparum [3] and in the test on Plasmodium falciparum [4] was more than 1000 nM each time.
Turning to `Cc1ccc(-c2cc3c(SCC(=O)Nc4cc(C(F)(F)F)ccc4Cl)nccn3n2)cc1`, the IC50 in the test on Plasmodium falciparum [1], with Plasmodium falciparum [2], with Plasmodium falciparum [3] and with Plasmodium falciparum [4] was more than 500 nM each time.
As for `Cc1ccc(N2C3c4ccccc4N(S(=O)(=O)c4ccc(C)cc4)C2c2ccccc2N3S(=O)(=O)c2ccc(C)cc2)cc1`, the IC50 with Plasmodium falciparum [1], in the test on Plasmodium falciparum [2], in the test on Plasmodium falciparum [3] and in the test with Plasmodium falciparum [4] was more than 500 nM throughout.
`CCN(CC)CCNc1ncnc2c1[nH]c1ccc(Cl)cc12`: the IC50 in the test with Plasmodium falciparum [1] was 326 nM; in the test on Plasmodium falciparum [2], 314 nM; in the test on Plasmodium falciparum [3], 851 nM; in the test on Plasmodium falciparum [4] it was 266 nM.
Taken in the same sequence, the figures for `CCCc1c(CC)c(=N)c2ccccc2n1C` were 211 nM, 397 nM, 355 nM and 65 nM.
Taken in the same sequence, the figures for `COc1ccc(C(C)=O)cc1N1C(=O)C2C(C1=O)C1(c3ccccc3)C(=O)C2(c2ccccc2)C(c2ccc(C)cc2)=C1c1ccc(C)cc1` (centres undefined) were more than 1000 nM, more than 1000 nM, more than 1000 nM and more than 1000 nM.
For `Cc1ccc(Nc2nc(NCCO)c3ccccc3n2)cc1C`, the IC50 turned out to be 186 nM with Plasmodium falciparum [1], 238 nM in the test with Plasmodium falciparum [2], 325 nM in the test on Plasmodium falciparum [3] and 219 nM in the test on Plasmodium falciparum [4].
Taken in the same sequence, the figures for `CCOC(=O)c1c(C)n(-c2ccc(Cl)cc2)c2ccc(OC(=O)C=Cc3ccccc3)cc12` were more than 1000 nM, more than 1000 nM, more than 1000 nM and more than 1000 nM.
Taken in the same sequence, the figures for `CCN1CCN(Cc2ccc(NC(=O)c3cc4ccc5cccnc5c4[nH]3)cc2)CC1` were 582 nM, 422 nM, 674 nM and 497 nM.
With `COc1ccc(NC(=O)C2c3ccccc3C(=O)N(CC(C)C)C2c2cccs2)cc1` (centres undefined), the IC50 turned out to be 262 nM in the test with Plasmodium falciparum [1], 343 nM in the test on Plasmodium falciparum [2], 370 nM in the test on Plasmodium falciparum [3] and 211 nM with Plasmodium falciparum [4].
For `CCCCCCOC(=O)C1=C(C)NC(=O)NC1c1ccccc1F` (centres undefined), the 50% inhibitory concentration (IC50) in the test on Plasmodium falciparum [1], in the test on Plasmodium falciparum [2], in the test on Plasmodium falciparum [3] and in the test with Plasmodium falciparum [4] was more than 1000 nM each time.
Turning to `CCOC(=O)c1cnc2ccc(CC)cc2c1O`, the IC50 with Plasmodium falciparum [1] is 301 nM; in the test with Plasmodium falciparum [2], more than 1000 nM; in the test with Plasmodium falciparum [3], 408 nM; in the test with Plasmodium falciparum [4], more than 1000 nM.
Regarding `Cc1ccc(N2C(=O)C3C(C2=O)C2(c4ccccc4)C(=O)C3(c3ccccc3)C(c3ccccc3)=C2c2ccccc2)cc1` (centres undefined), the IC50 in the test on Plasmodium falciparum [1], with Plasmodium falciparum [2], in the test on Plasmodium falciparum [3] and with Plasmodium falciparum [4] was more than 1000 nM throughout.
With `c1ccc2cc3c(Nc4ccc(N5CCOCC5)cc4)ccnc3cc2c1`, the IC50 is 1440 nM in the test on Plasmodium falciparum [1], more than 1000 nM in the test on Plasmodium falciparum [2], more than 1000 nM with Plasmodium falciparum [3] and more than 1000 nM in the test on Plasmodium falciparum [4].
For `CCc1ccc(Nc2cc(C)c3ccc(O)cc3n2)cc1`, the IC50 was 171 nM in the test on Plasmodium falciparum [1], 165 nM in the test on Plasmodium falciparum [2], 127 nM with Plasmodium falciparum [3] and 150 nM with Plasmodium falciparum [4].
Take `COc1ccc(C(=O)Nc2nonc2-c2ccc(OC)c(OC)c2)cc1Cl`: the IC50 with Plasmodium falciparum [1], in the test on Plasmodium falciparum [2], in the test with Plasmodium falciparum [3] and in the test with Plasmodium falciparum [4] was more than 1000 nM throughout.
Consider `COc1ccc(C2=C(c3ccc(OC)cc3)C3(c4ccccc4)C(=O)C2(c2ccccc2)C2C(=O)N(c4ccc(C)cc4)C(=O)C23)cc1` (centres undefined), for which the IC50 with Plasmodium falciparum [1], with Plasmodium falciparum [2], in the test on Plasmodium falciparum [3] and in the test on Plasmodium falciparum [4] was more than 1000 nM each time.
